This passage reports IC50 results from BindingDB's records for doi:10.7270/Q2M043S8 (University of Pittsburgh, 2006).

This assay addresses T1, Dual specificity protein phosphatase 6 (Rattus norvegicus, UniProt Q64346).
T1 sequence (Q64346 whole entry): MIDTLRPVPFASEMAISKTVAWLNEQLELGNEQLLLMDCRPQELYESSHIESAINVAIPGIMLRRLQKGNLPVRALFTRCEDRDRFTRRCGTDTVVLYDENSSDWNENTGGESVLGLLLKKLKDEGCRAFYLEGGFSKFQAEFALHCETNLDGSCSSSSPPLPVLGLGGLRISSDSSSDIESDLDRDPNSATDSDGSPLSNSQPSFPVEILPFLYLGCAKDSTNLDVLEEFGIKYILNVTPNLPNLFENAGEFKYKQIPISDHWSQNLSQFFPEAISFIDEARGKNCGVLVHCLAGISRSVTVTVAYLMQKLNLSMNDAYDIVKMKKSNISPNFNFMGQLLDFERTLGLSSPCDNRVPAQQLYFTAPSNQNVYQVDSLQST
The experiment in a line: MKP-3 phosphatase inhibition with catalase present, dose response, biochemical, rat DUSP6, catalase added, probe assessment (AID 564).
In general, IC50 refers to the concentration that inhibits the measured activity by half. High values mean a need for much substance, low ones inhibition by little substance. On to `Cc1ccc(C)n1-c1cccc(C(=O)O)c1`, for which the IC50 is over 50 µM.
In turn, `O=C(Nc1ccc2nc(-c3ccco3)c(-c3ccco3)nc2c1)N1CCCCCC1` displayed an IC50 of over 50 µM.
Take `CCCCCC#CCC#CCC#CCC#CCCCC(=O)O`: the IC50 is over 50 µM.
As to `Cn1ncnc2c(=O)n(C)c(=O)nc1-2`, the IC50 is over 50 µM.
Turning to `[O-]/[N+](=C\c1ccncc1)c1ccccc1`, the IC50 is over 50 µM.
`O=C1C=Cc2ccccc2C1=O` [1,2-dihydronaphthalene-1,2-dione] showed an IC50 of over 50 µM.
The compound `Cc1nc2cc(-c3cccc(F)c3)nn2c(C)c1CCC(=O)N1CCC2(CC1)OCCO2` [1-(1,4-dioxa-8-azaspiro[4.5]decan-8-yl)-3-[2-(3-fluorophenyl)-5,7-dimethyl-6-pyrazolo[1,5-a]pyrimidinyl]-1-propanone] showed an IC50 of over 50 µM.
On to `CCn1nc(-c2ccccc2)nc2c(=O)n(C)c(=O)nc1-2` [1-Ethyl-6-methyl-3-phenyl-1H-pyrimido[5,4-e][1,2,4]triazine-5,7-dione], for which the IC50 is over 50 µM.
In turn, `Cc1cc(C)n2c(SCC(=O)N3CCN(S(=O)(=O)c4ccc(Cl)cc4)CC3)nnc2n1` [1-[4-(4-chlorophenyl)sulfonyl-1-piperazinyl]-2-[(5,7-dimethyl-[1,2,4]triazolo[4,3-a]pyrimidin-3-yl)thio]ethanone] came in with an IC50 of over 50 µM.
With `[O-]/[N+](=C\c1ccc(OC(F)F)cc1)c1ccccc1` [1-[4-(difluoromethoxy)phenyl]-N-phenylmethanimine oxide], the IC50 was over 50 µM.
As for `CCCCn1c(SCC(=O)c2ccc(OC)cc2OC)nc2cc(S(N)(=O)=O)ccc21` [1-butyl-2-[2-(2,4-dimethoxyphenyl)-2-oxidanylidene-ethyl]sulfanyl-benzimidazole-5-sulfonamide], the IC50 was over 50 µM.
`CCn1nc(-c2cccs2)nc2c(=O)n(C)c(=O)nc1-2` [1-ethyl-6-methyl-3-thiophen-2-yl-pyrimido[5,4-e][1,2,4]triazine-5,7-dione] returned an IC50 of over 50 µM.
As for `O=C(Nc1ccccc1)c1ccc2nc(-c3ccco3)c(-c3ccco3)nc2c1` [2,3-di-2-furyl-N-phenyl-6-quinoxalinecarboxamide], the IC50 is over 50 µM.
`CC(C)Cn1c(N)c(C(=O)COC(=O)c2cc(-c3ccco3)nc3ccccc23)c(=O)n(C)c1=O` [2-(2-furanyl)-4-quinolinecarboxylic acid [2-[4-amino-1-methyl-3-(2-methylpropyl)-2,6-dioxo-5-pyrimidinyl]-2-oxoethyl] ester]: the IC50 is over 50 µM.
`CCOc1ccc(-c2cc3nc(C4CCN(C(=O)OC(C)(C)C)CC4)c(C(=O)O)cn3n2)cc1` [2-(4-ethoxyphenyl)-5-[1-[(2-methylpropan-2-yl)oxy-oxomethyl]-4-piperidinyl]-6-pyrazolo[1,5-a]pyrimidinecarboxylic acid] registered an IC50 of over 50 µM.
For `COc1ccc(-c2cc3nc(C4CCN(C(=O)OC(C)(C)C)CC4)c(C(=O)O)cn3n2)cc1` [2-(4-methoxyphenyl)-5-[1-[(2-methylpropan-2-yl)oxy-oxomethyl]-4-piperidinyl]-6-pyrazolo[1,5-a]pyrimidinecarboxylic acid], the IC50 is over 50 µM.
`Cc1cccc(NC(=O)c2cc(NC(=O)C3CCCCC3C(=O)O)ccc2N2CCCCC2)c1` (stereo unspecified) [2-({[3-{[(3-methylphenyl)amino]carbonyl}-4-(1-piperidinyl)phenyl]amino}carbonyl)cyclohexanecarboxylic acid] came in with an IC50 of over 50 µM.
As for `Cc1ccc(/C=C/C2=Cc3c(sc(NC(=O)CSc4nnc(N)[nH]4)c3C#N)C(C)(C)C2)o1` [2-[(5-azanyl-1H-1,2,4-triazol-3-yl)sulfanyl]-N-[3-cyano-7,7-dimethyl-5-[(E)-2-(5-methylfuran-2-yl)ethenyl]-6H-1-benzothiophen-2-yl]ethanamide], the figure is over 50 µM.
For the compound `CCCCNC(=O)c1c(N)n(CCCOC)c2nc3ccccc3nc12` [2-amino-N-butyl-1-(3-methoxypropyl)-3-pyrrolo[3,2-b]quinoxalinecarboxamide], the IC50 is over 50 µM.
`N#Cc1c(N)sc(=S)c2c1CCN(Cc1ccccc1)C2` [3-Amino-7-benzyl-1-thioxo-5,6,7,8-tetrahydro-1H-thiopyrano[3,4-c]pyridine-4-carbonitrile] came in with an IC50 of 47.9 µM.
Then `O=C1C=C(NCc2ccc(Cl)c(Cl)c2)CC1` [3-[(3,4-dichlorobenzyl)amino]cyclopent-2-en-1-one], with over 50 µM; and `CCCSc1nnc(NC(=O)c2sc3nc(-c4cccs4)ccc3c2N)s1` [3-amino-N-(5-propylsulfanyl-1,3,4-thiadiazol-2-yl)-6-thiophen-2-ylthieno[2,3-b]pyridine-2-carboxamide], with over 50 µM; and `O=C1Nc2ccccc2SC(c2ccccc2)C1O` (stereo unspecified) [3-hydroxy-2-phenyl-2,3-dihydro-1,5-benzothiazepin-4(5H)-one], with over 50 µM.
`CC(C)(C)N1C(=O)Cc2c1nc(N)c1c(N)nc(N3CCCCC3CO)c(C#N)c21` (stereo unspecified) [5,6-bis(azanyl)-3-tert-butyl-8-[2-(hydroxymethyl)piperidin-1-yl]-2-oxidanylidene-1H-pyrrolo[2,3-c][2,7]naphthyridine-9-carbonitrile] showed an IC50 of over 50 µM.
Then `COc1cc(/C=C(/C#N)c2ccc(F)cc2)ccc1OCc1ccc(C(=O)O)o1` [5-({4-[2-cyano-2-(4-fluorophenyl)vinyl]-2-methoxyphenoxy}methyl)-2-furoic acid], with over 50 µM.
`COc1ccc(Br)cc1C=c1sc2nc(-c3ccco3)nn2c1=O` [5-[(5-bromanyl-2-methoxy-phenyl)methylidene]-2-(furan-2-yl)-[1,3]thiazolo[3,2-b][1,2,4]triazol-6-one] yielded an IC50 of over 50 µM.
Then `CCOc1cc(/C=C(/C#N)c2ccc(F)cc2)ccc1OCc1ccc(C(=O)O)o1` [5-[[4-[(E)-2-cyano-2-(4-fluorophenyl)ethenyl]-2-ethoxyphenoxy]methyl]furan-2-carboxylic acid], with over 50 µM; and `N#Cc1c(NC(=O)c2ccc(Br)o2)n(-c2ccccc2)c2nc3ccccc3nc12` [5-bromanyl-N-(3-cyano-1-phenyl-pyrrolo[3,2-b]quinoxalin-2-yl)furan-2-carboxamide], with over 50 µM; and `Cc1cccc(N2CCN(C(=O)Cc3c(C(=O)O)[nH]c4ccc(Cl)cc34)CC2)c1C` [5-chloranyl-3-[2-[4-(2,3-dimethylphenyl)piperazin-1-yl]-2-oxidanylidene-ethyl]-1H-indole-2-carboxylic acid], with over 50 µM.
With `CCCCCNC(=O)c1ccc2c(=O)[nH]c3c(C(=O)NCC4CCCO4)sc(=S)n3c2c1` (stereo unspecified) [5-oxo-N3-(2-oxolanylmethyl)-N8-pentyl-1-sulfanylidene-4H-thiazolo[3,4-a]quinazoline-3,8-dicarboxamide], the IC50 was over 50 µM.
In the case of `Cc1nc2c(C(=O)NCCC3=CCCCC3)c[nH]n2c(=O)c1Cl` [6-chloro-N-(2-cyclohex-1-en-1-ylethyl)-7-hydroxy-5-methylpyrazolo[1,5-a]pyrimidine-3-carboxamide], the IC50 is over 50 µM.
`O=C(c1cccs1)c1no[n+]([O-])c1C(=O)c1cccs1` [(5-oxidanidyl-4-thiophen-2-ylcarbonyl-1,2,5-oxadiazol-5-ium-3-yl)-thiophen-2-yl-methanone] showed an IC50 of over 50 µM.
Turning to `Nc1c(N2CCCC2)cc(Cl)c2nonc12` [(7-chloro-5-pyrrolidino-benzofurazan-4-yl)amine], the IC50 is over 50 µM.
Turning to `[O-]/[N+](=C/c1ccc(F)cc1)c1ccccc1` [(E)-(4-fluorobenzylidene)(phenyl)azane oxide], the IC50 was over 50 µM.
`CC1=C(/C=C/C(C)=C/C=C/C(C)=C/C(=O)O)C(C)(C)CCC1` [ALL-TRANS-RETINOIC ACID]: the IC50 is over 50 µM.
`CC(=O)[C@@H]1[C@@H]2C(=O)N(c3ccc(F)c(Cl)c3)C(=O)[C@@H]2C2c3ccccc3C=CN21` (stereo partly specified) [MLS000040594] came in with an IC50 of over 50 µM.
Then `COCCCn1c(N)c(C(=O)NCCC(C)C)c2nc3ccccc3nc21` [MLS000041744], with over 50 µM; and `CCn1c(SCC(=O)Nc2ccc3c(c2)c2ccccc2n3CC)nnc1-c1ccco1` [MLS000050867], with over 50 µM.
Compound `O=C1C(=C2C(=O)c3ccccc3C2=O)Nc2ccccc21` [MLS000071738] gave a half-inhibitory concentration (IC50) of over 50 µM.
As to `COc1ccc(-n2c(NC(=O)c3ccco3)c(C#N)c3nc4ccccc4nc32)cc1` [MLS000079925], the IC50 was over 50 µM.
As to `COc1ccc(Cn2c(C)nc3c(c2=O)c2nc4ccccc4nc2n3Cc2ccco2)cc1` [MLS000079944], the midpoint of inhibition, the IC50, lay at 47.8 µM.
Then `Cc1ccc(-c2csc(NC(=O)c3ccno3)n2)cc1` [MLS000081820], with over 50 µM; and `CC(C)Sc1nc2sc3c(c2c2nnc(SCC(=O)NCc4ccco4)n12)CCCC3` [MLS000082957], with over 50 µM; and `Nc1nc2c(s1)CCc1c-2cnn1-c1ccccc1` [MLS000085948], with over 50 µM.
Regarding `Cc1cc(NC(=O)c2ccc(S(=O)(=O)N3CCCC3)cc2)nc2c1c(=O)oc1ccccc12` [MLS000091355], the IC50 was over 50 µM.
Then `FC(F)(F)c1ccc(N2CCOCC2)c(Nc2nc3ccccc3n3cnnc23)c1` [MLS000093276], with over 50 µM; and `COC(=O)c1ccccc1NC(=O)CN1C(=O)C2CCCN2c2ncc(Cl)cc21` (stereo unspecified) [MLS000094302], with over 50 µM.
For `CCc1ccc(NC(=O)CSc2nc3ccccc3c(=O)n2CCN2CCOCC2)cc1` [MLS000095236], the IC50 was over 50 µM.
As for `Cc1c(N=c2c(=O)c3ccccc3c2=O)c(=O)n(-c2ccccc2)n1C` [MLS000105950], the figure is over 50 µM.
As for `CCOc1ccc2noc3c2c1C(=O)c1ccccc1-3` [MLS000106837], the IC50 is over 50 µM.
Turning to `COc1ccc2noc3c2c1C(=O)c1ccccc1-3` [MLS000106874], the IC50 was over 50 µM.
